Read-outs that look alike come from different tables or passages of the source.
Legend:
CHIKV strain S27 = test: CHIKV CPE inhibition assay in Huh7 cells; format: cell-based; conditions: Chikungunya virus, Huh-7, 48 h
Experimental: The antiviral activities of the nucleoside analogs against chikungunya virus (CHIKV) were tested using a cell-based high-throughput CPE (cytopathic effect) inhibition assay. In this assay, CHIKV strain S27 and Huh7 cells (a human hepatoma cell line) were employed. The test compounds were prepared in a 9-point fourfold serial dilutions and plated in a 384-well plate. Then, a density of 8000 cells/well and an MOI (Multiplicity of Infection) of 0.25 CHIKV were added to each well. The plates were incubated at 37° C./5% CO2 for 2 days. The antiviral activity of a test compound was measured by addition of an ATPLite™ 1-step kit (PerkinElmer), which measures the ATP levels in live cells protected from viral CPE by a test compound. The cytotoxicity of test compounds was measured in parallel in the absence of virus infection. The readout is luminescence.

DENV-2/16681/eGFP [1] = test: Antiviral activity against DENV-2/16681/eGFP in Vero cells (eGFP read-out); format: cell-based, dengue virus serotype 2; conditions: Dengue virus, DENV2, Vero, 72 h, read-out: DENV Vero (EC50, μM)
Experimental: (§1) The antiviral activity of the compounds against DENV-2/16681/eGFP was determined in a phenotypic antiviral assay with eGFP read-out, a measure for the amount of virus (TV-WI-03476 and TV-WI-05601). In parallel, cytotoxicity of the compounds was measured using ATPLite™ (PerkinElmer, Waltham, Mass.). The assay was performed in two different cell-lines (Vero and Huh-7) to exclude cell-specific activity of the compound.
(§2) DENV-2/16681/eGFP was produced by the transfection of the in vitro transcribed RNA of plasmid pFK-DVs-G2A (purchased from Prof. R. Bartenschlager, University of Heidelberg, Germany; FIG. 1) into Huh-7 cells (human hepatocarcinoma cells; kindly provided by Prof. R. Bartenschlager) (TV-WI-04247).
(§3) In brief, 2,500 Vero cells (African green monkey kidney cells; European Collection of Cell Cultures [ECACC], Porton Down, UK; catalogue number 84113001) or Huh-7 cells were seeded in 384-well plates containing 9-fold serially diluted test compound. After incubating 24 h at 37° C., Vero and Huh-7 cells were infected with DENV-2/16681/eGFP at a multiplicity of infection (MOI) of 1 and 5, respectively. After 3 days of incubation at 37° C., the viral replication was quantified by measuring eGFP expression in the cells with a laser microscope. The 50% effective concentration (EC50) was defined as the concentration inhibiting 50% of the eGFP expression of the compound-treated DENV-infected cells vs. the untreated DENV-infected cells (virus control), using the cell controls as baseline of eGFP signal (i.e., 0% signal). In the same way, the 90% effective concentration (EC90) was calculated.

DENV-2/16681/eGFP [2] = test: Antiviral activity against DENV-2/16681/eGFP in Huh-7 cells (eGFP read-out); format: cell-based, dengue virus serotype 2; conditions: Dengue virus, DENV2, Huh-7, 72 h, read-out: DENV Huh-7 (EC50, μM)
Experimental: as §1, §2, §3

[3] = Cytotoxicity in Huh-7 cells (ATPlite cell viability); format: cell-based; conditions: human, Table 1A, read-out: Tox Huh-7 (CC50)
Experimental: as §1
(§4) In parallel, cytotoxic effects of the compounds (50% cytotoxic concentration [CC50] and 90% cytotoxic concentration [CC90]) were evaluated using an ATPlite cell viability luminescence assay (PerkinElmer). To this end, ATPlite was added to the wells according to the supplier's instructions once the eGFP read-out was performed, and the luminescence was measured; a measure directly relating to the number of viable cells. The CC50 was determined as the 50% inhibitory concentration for the luminescent signal in compound-treated DENV-infected cells compared to untreated DENV-infected cells (virus control), using a medium control as baseline of emitted light (i.e., 0% signal).

[4] = Cytotoxicity in Vero cells (ATPlite cell viability); format: cell-based; conditions: African green monkey, Table 1A, read-out: Tox Vero (CC50)
Experimental: as §1, §4

[5] = test system: HCV replicon (NS3-NS5B regions of HCV type 1b) in Huh-7 luc/neo cells; test: HCV replicon assay (Huh-Luc cells, luciferase read-out); format: cell-based; conditions: Hepatitis C virus, Huh-7, 72 h
From the text: The compounds of Formula (I) were examined for activity against HCV in a cellular assay. […] The cellular assay was based on a bicistronic expression construct, as described by Lohmann et al. (1999) Science vol. 285 pp. 110-113 with modifications described by Krieger et al. (2001) Journal of Virology 75: 4614-4624, in a multi-target screening strategy.
In essence, the method was as follows. The assay utilized the stably transfected cell line Huh-7 luc/neo (hereafter referred to as Huh-Luc). This cell line harbors an RNA encoding a bicistronic expression construct comprising the wild type NS3-NS5B regions of HCV type 1b translated from an internal ribosome entry site (IRES) from encephalomyocarditis virus (EMCV), preceded by a reporter portion (FfL-luciferase), and a selectable marker portion (neo^R, neomycine phosphotransferase). The construct is bordered by 5′ and 3′ NTRs (non-translated regions) from HCV genotype 1b. Continued culture of the replicon cells in the presence of G418 (neo^R) is dependent on the replication of the HCV-RNA. The stably transfected replicon cells that express HCV-RNA, which replicates autonomously and to high levels, encoding inter alia luciferase, were used for screening the antiviral compounds.
The replicon cells were plated in 384-well plates in the presence of the test and control compounds which were added in various concentrations. Following an incubation of three days, HCV replication was measured by assaying luciferase activity (using standard luciferase assay substrates and reagents and a Perkin Elmer ViewLux™ ultraHTS microplate imager). Replicon cells in the control cultures have high luciferase expression in the absence of any inhibitor. The inhibitory activity of the compound on luciferase activity was monitored on the Huh-Luc cells, enabling a dose-response curve for each test compound. EC50 values were then calculated, which value represents the amount of the compound required to decrease the level of detected luciferase activity by 50%, or more specifically, the ability of the genetically linked HCV replicon RNA to replicate.

HCV polymerase = HCV polymerase (Hepatitis C virus genotype 1b, UniProt Q9WMX2); test: Biochemical HCV polymerase inhibition
[6] = read-out: CHIKV Huh-7 (EC50, μM)
[7] = Table 1A, Huh-Luc replicon cells, 3 days, read-out: HCV Huh-7 (EC50)
[8] = Table 1A, Huh7 cells, MOI 0.25, 2 days, read-out: CHIKV Huh-7 (EC50)

Chain of HCV polymerase (Q9WMX2 2420-3010): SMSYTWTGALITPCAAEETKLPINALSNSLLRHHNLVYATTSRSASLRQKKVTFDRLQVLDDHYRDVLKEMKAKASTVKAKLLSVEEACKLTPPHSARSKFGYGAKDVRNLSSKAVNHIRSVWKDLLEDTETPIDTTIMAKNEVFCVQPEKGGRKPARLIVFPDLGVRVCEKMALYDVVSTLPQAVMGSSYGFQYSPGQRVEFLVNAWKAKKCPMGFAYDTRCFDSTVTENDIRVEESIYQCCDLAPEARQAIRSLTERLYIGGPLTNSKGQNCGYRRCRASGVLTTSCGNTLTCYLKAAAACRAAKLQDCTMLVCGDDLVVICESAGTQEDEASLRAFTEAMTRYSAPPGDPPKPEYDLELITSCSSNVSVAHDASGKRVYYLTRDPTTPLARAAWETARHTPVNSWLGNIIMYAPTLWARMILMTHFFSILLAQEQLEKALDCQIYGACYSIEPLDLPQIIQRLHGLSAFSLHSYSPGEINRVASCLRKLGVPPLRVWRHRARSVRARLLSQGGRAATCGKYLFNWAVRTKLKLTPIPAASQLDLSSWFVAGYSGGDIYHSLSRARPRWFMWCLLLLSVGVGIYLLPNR

SMILES	EC50 (CHIKV strain S27; [6]) [µM]	EC50 (DENV-2/16681/eGFP [1]) [µM]	EC50 (DENV-2/16681/eGFP [2]) [µM]	CC50 [3] [µM]	CC50 [4] [µM]	EC50 [5, 7] [µM]	EC50 (CHIKV strain S27; [8]) [µM]	EC50 ([5]; read-out: HCV Huh-7 (EC50, μM)) [µM]	IC50 (HCV polymerase) [µM]
Nc1ccn([C@@H]2O[C@](F)(CO)[C@@H](O)[C@]23CCS3)c(=O)n1 [Compound 27, 4-amino-1-((4R,5R,7S,8R)-7-fluoro-8-hydroxy-7-(hydroxymethyl)-6-oxa-1-thiaspiro[3.4]octan-5-yl)pyrimidin-2(1H)-one]	> 100	50	77	> 100	> 100	> 100			
CC(C)OC(=O)[C@H](C)NP(=O)(OC[C@@]1(F)O[C@@H](n2ccc(N)nc2=O)[C@@]2(CCS2)[C@@H]1O)Oc1ccccc1 (stereo partly drawn) [Compound 31, (2S)-isopropyl 2-(((((4R,5R,7S,8R)-5-(4-amino-2-oxopyrimidin-1(2H)-yl)-7-fluoro-8-hydroxy-6-oxa-1-thiaspiro[3.4]octan-7-yl)methoxy)(phenoxy)phosphoryl)amino)propanoate]		> 100	36	> 100	> 100	11	> 100		
O=c1ccn([C@@H]2O[C@](F)(COP(=O)(Oc3ccccc3Cl)OC3CCCC3)[C@@H](O)[C@]23CCS3)c(=O)[nH]1 (stereo partly drawn) [Compound 34, 2-chlorophenyl cyclopentyl (((4R,5R,7S,8R)-5-(2,4-dioxo-3,4-dihydropyrimidin-1(2H)-yl)-7-fluoro-8-hydroxy-6-oxa-1-thiaspiro[3.4]octan-7-yl)methyl) phosphate]	> 100	35	53	> 100	> 100			> 100	
O=c1ccn([C@@H]2O[C@]3(F)COP(=O)(OC4CCCC4)O[C@H]3[C@]23CCS3)c(=O)[nH]1 (stereo partly drawn) [Compound 35, 1-((2′R,4aS,6R,7aR)-2-(cyclopentyloxy)-4a-fluoro-2-oxidotetrahydrospiro[furo[3,2-d][1,3,2]dioxaphosphinine-7,2′-thietan]-6-yl)pyrimidine-2,4(1H,3H)-dione]	72	> 100	> 100	> 100	> 100	25			
CC(C)OP(=O)(OC[C@@]1(F)O[C@@H](n2ccc(=O)[nH]c2=O)[C@@]2(CCS2)[C@@H]1O)Oc1ccc(Cl)cc1 (stereo partly drawn) [Compound 37, 4-chlorophenyl (((4R,5R,7S,8R)-5-(2,4-dioxo-3,4-dihydropyrimidin-1(2H)-yl)-7-fluoro-8-hydroxy-6-oxa-1-thiaspiro[3.4]octan-7-yl)methyl) isopropyl phosphate]	> 100	> 100	> 100	> 100	> 100			> 100	
O=c1ccn([C@@H]2O[C@](F)(COP(=O)(NC3CCC3)Oc3ccc(Cl)cc3)[C@@H](O)[C@]23CCS3)c(=O)[nH]1 (stereo partly drawn) [Compound 39, 4-chlorophenyl (((4R,5R,7S,8R)-5-(2,4-dioxo-3,4-dihydropyrimidin-1(2H)-yl)-7-fluoro-8-hydroxy-6-oxa-1-thiaspiro[3.4]octan-7-yl)methyl) cyclobutylphosphoramidate]		45	49	> 100	> 100	> 100	> 100		
O=c1ccn([C@@H]2O[C@]3(F)CO[P@](=O)(NC4CCC4)O[C@H]3[C@]23CCS3)c(=O)[nH]1 [Compound 40a, 1-((2R,2′R,4aS,6R,7aR)-2-(cyclobutylamino)-4a-fluoro-2-oxidotetrahydrospiro[furo[3,2-d][1,3,2]dioxaphosphinine-7,2′-thietan]-6-yl)pyrimidine-2,4(1H,3H)-dione]		> 100	> 100	> 100	> 100	> 100	> 100		
O=c1ccn([C@@H]2O[C@]3(F)CO[P@@](=O)(NC4CCC4)O[C@H]3[C@]23CCS3)c(=O)[nH]1 [Compound 40b, 1-((2S,2′R,4aS,6R,7aR)-2-(cyclobutylamino)-4a-fluoro-2-oxidotetrahydrospiro[furo[3,2-d][1,3,2]dioxaphosphinine-7,2′-thietan]-6-yl)pyrimidine-2,4(1H,3H)-dione]		> 100	> 100	> 100	> 100	> 100	> 100		
[N-]=[N+]=N[C@]1(CO)O[C@@H](n2ccc(=O)[nH]c2=O)[C@@]2(CCS2)[C@@H]1O [Compound 44, 1-[(4R,5R,6R,8R)-6-azido-5-hydroxy-6-(hydroxymethyl)-7-oxa-1-thiaspiro[3.4]octan-8-yl]pyrimidine-2,4-dione]	> 100	> 100	> 100	> 100	> 100	> 100			
[N-]=[N+]=N[C@]1(COP(=O)(O)OP(=O)(O)OP(=O)(O)O)O[C@@H](n2ccc(=O)[nH]c2=O)[C@@]2(CCS2)[C@@H]1O [Compound 62]									0.56
Nc1ncnc2c1ncn2[C@@H]1O[C@H](CO)[C@@H](O)[C@]12CCS2 [Compound 67, (4R,5R,7R,8R)-5-(6-amino-9H-purin-9-yl)-7-(hydroxymethyl)-6-oxa-1-thiaspiro[3.4]octan-8-ol]	> 50	> 50	> 50	> 50	> 50	> 50			

— patent publication US11267844B2, “Spirothietane nucleosides” (Janssen Pharmaceutica NV, priority 2017, dated 2022)
